# Key:
# [1] = biological target: Kir6.2*,C166S-GFP + SUR1 (Homo sapiens, UniProt Q14654, C166S); experiment: Current inhibition in excised inside-out patches (patch-clamp fluorometry)
# [2] = biological target: T1, Kir6.2*-GFP + SUR-K205A (Homo sapiens, UniProt Q14654); experiment: ANAP fluorescence quenching in excised patches (patch-clamp fluorometry); assay type: binding; settings: excised patches (PCF), Hill fit
# T1 construct: ANAP labelling is specific and only full-length Kir6.2 is expressed at the cell membrane; expressed in transfected cells; host or cells: HEK-293T
# Excerpt: (§1) We introduced a charge neutralization (alanine, K205A) and a charge reversal (glutamate, K205E) mutation at this position and measured simultaneous nucleotide binding and current inhibition with PCF (Figure 4B,C,D). The binding and inhibition curves for TNP-ATP almost perfectly overlaid for the SUR1-K205A mutant (Figure 4C). The same was also true for SUR1-K205E (Figure 4D). Data were fit with the MWC-type model as before. […] This was reflected by a decrease in the estimated KA for TNP-ATP, which correlated with the degree of conservation of the mutation, that is we observed a larger effect for the charge reversal compared to the charge neutralization mutation (Figure 4E). However, in addition to direct effects of K205 on nucleotide binding, we also observed a shift in D for both mutations (Figure 4E).
# (§2) Currents were measured as described above.
# (§3) ANAP bleaching was corrected as for the unroofed binding experiments with Equation 1 (Figure 2—figure supplement 3A). Due to the lower signal-to-noise ratio for PCF compared to the unroofed membranes, we performed experiments from both high-to-low and low-to-high TNP-ATP concentrations to minimise artifacts from our bleaching corrections.
# [3] = biological target: T2, Kir6.2*-GFP + SUR-K205E (Homo sapiens, UniProt Q14654); experiment: as above; assay type: binding; settings: excised patches (PCF), Hill fit
# T2 construct: ANAP labelling is specific and only full-length Kir6.2 is expressed at the cell membrane; expressed in transfected cells; host or cells: HEK-293T
# Excerpt: as §1, §2, §3
# T1 sequence (Q14654 whole entry, stated change not applied): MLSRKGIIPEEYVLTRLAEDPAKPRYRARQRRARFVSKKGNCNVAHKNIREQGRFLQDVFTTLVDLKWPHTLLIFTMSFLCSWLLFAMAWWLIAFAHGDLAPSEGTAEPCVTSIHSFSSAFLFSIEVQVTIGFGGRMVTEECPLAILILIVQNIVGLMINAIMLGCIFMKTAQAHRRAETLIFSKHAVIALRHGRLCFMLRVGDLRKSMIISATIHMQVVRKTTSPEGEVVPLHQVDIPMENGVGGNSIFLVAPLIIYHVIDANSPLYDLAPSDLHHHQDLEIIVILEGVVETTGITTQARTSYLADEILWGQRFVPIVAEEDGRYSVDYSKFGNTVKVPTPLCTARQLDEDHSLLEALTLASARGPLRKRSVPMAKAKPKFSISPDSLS
# T1 sequence (Q09428 whole entry K205A partner): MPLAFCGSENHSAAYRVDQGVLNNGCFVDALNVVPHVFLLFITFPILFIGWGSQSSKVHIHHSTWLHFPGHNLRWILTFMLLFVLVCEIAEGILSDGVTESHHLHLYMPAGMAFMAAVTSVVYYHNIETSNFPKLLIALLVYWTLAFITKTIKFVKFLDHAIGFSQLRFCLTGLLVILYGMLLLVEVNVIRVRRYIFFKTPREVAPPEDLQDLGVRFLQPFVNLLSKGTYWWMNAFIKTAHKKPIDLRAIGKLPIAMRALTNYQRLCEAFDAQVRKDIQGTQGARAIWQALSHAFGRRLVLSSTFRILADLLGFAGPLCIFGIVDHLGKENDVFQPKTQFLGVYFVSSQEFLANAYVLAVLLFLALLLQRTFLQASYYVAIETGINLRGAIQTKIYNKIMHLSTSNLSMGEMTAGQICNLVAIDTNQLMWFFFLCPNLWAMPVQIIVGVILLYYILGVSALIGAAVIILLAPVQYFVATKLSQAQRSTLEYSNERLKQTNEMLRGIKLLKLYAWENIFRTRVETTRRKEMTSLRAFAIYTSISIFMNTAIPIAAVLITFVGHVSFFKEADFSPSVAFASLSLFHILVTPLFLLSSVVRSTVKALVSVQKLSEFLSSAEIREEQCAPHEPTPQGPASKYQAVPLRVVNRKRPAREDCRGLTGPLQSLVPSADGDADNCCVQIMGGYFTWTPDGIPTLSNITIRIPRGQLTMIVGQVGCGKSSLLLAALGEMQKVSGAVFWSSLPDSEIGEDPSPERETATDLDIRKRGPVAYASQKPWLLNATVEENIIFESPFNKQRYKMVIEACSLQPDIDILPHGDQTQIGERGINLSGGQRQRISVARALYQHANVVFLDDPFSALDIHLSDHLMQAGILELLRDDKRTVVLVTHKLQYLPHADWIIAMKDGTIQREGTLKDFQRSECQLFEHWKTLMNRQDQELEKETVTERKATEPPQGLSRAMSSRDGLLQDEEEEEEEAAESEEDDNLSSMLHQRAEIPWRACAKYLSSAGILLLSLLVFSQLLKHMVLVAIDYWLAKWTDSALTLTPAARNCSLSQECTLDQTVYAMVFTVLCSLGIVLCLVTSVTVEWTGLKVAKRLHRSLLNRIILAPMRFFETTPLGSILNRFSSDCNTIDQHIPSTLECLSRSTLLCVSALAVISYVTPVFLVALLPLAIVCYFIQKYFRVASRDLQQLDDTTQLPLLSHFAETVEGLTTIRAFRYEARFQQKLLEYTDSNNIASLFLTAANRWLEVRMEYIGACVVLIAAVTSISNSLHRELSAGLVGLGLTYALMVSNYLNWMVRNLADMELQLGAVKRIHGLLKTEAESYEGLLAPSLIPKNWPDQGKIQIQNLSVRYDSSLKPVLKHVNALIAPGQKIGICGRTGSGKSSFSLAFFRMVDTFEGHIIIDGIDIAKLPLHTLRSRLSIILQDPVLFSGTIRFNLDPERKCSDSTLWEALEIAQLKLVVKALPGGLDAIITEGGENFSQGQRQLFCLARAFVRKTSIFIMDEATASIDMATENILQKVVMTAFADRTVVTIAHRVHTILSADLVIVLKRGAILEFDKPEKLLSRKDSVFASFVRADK
# T2 sequence (Q14654 whole entry, stated change not applied): as the sequence (Q14654 whole entry, stated change not applied) above
# T2 sequence (Q09428 whole entry K205E partner): as the sequence (Q09428 whole entry K205A partner) above, with A205E counted along it
# Chain of Kir6.2*,C166S-GFP + SUR1 (Q14654 whole entry C166S): as the sequence (Q14654 whole entry, stated change not applied) above, with C166S counted along it
# Chain of Kir6.2*,C166S-GFP + SUR1 (Q09428 whole entry partner): as the sequence (Q09428 whole entry K205A partner) above, with A205K counted along it
smiles,measurement,setting,value
"Nc1ncnc2c1ncn2[C@@H]1O[C@H](COP(=O)(O)OP(=O)(O)OP(=O)(O)O)[C@H]2OC3(O[C@H]21)C([N+](=O)[O-])=CC(=[N+]([O-])[O-])C=C3[N+](=O)[O-] (some centres unmarked) [TNP-ATP, trinitrophenyl-ATP]",IC50,[1],776 µM
same,h (Hill coefficient) current inhibition,"[1]; excised inside-out patches, Mg2+-free, Hill fit",1.35
same,h (Hill coefficient) fluorescence quenching,[2],0.73
same,Emax,[2]; fraction,100%
same,EC50,[2]; n = 9,204 µM
same,h (Hill coefficient) fluorescence quenching,[3],0.74
same,Emax,[3]; fraction,100%
same,EC50,[3]; n = 9,427 µM

# Reference: PMC7004565, “Nucleotide inhibition of the pancreatic ATP-sensitive K^+ channel explored with patch-clamp fluorometry” (eLife, 2020)
